# In patent publication US20230404953A1, “COMPOUND FOR THE REDUCTION OF WHITE ADIPOSE TISSUE AND THE TREATMENT OF OVERWEIGHT AND OBESITY” (UNIVERSIDAD DE GRANADA, priority 2020, published 2023):
# Assays:
# C2C12 myoblasts = test: MTT cell proliferation assay in myoblasts; type: cell-based; conditions: 1 mM β-RA for 5 days, proliferation conditions
# Procedure: (§1) It is known that one of the WAT expansion mechanisms is hyperplasia, i.e., the capacity of WAT to recruit new adipocytes proliferated from precursor cells. To check whether the effect of β-RA on WAT may also constitute a direct action on WAT, the proliferative capacity of a preadipocyte cell line (3T3L1) subjected to treatment with β-RA was determined in in vitro assays, and the results were compared with those obtained in a myoblast cell line (C2C12). This could be used to determine whether the possible effects are specific of a given cell type, excluding those signals and consequences resulting from the physiological context of the in vivo studies. Preadipocyte cell line 3T3L1 and myoblast cell line C2C12 were provided by the Cell Culture Department of the Science Instrumentation Center of the University of Granada. The cells were cultured in glucose-rich DMEM-GlutaMAX supplemented with 10% BCS or FBS, 1% non-essential amino acids MEM, and 1% antibiotic/antimycotic. Treatment with β-RA was administered at a concentration of 1 mM for 5 days. A control group was also treated with vehicle (DMSO) at the same concentration (Luna-Sanchez et al., 2015). The proliferation assay was performed with Vybrant® MTT Cell Proliferation Assay Kit (ThermoFisher Scientific), following the indications of the manufacturing company.
# [1] = tested on: wild-type mice with a standard diet; test: Survival and phenotypic state of mice with a standard diet (overweight associated with age); type: in vivo
# Excerpt: (§2) For the studies, c57Bl6j strain control mice were used under the protocols approved by the Animal Experimentation Ethics Committee of the University of Granada and registered by the competent body, the General Directorate of Agricultural and Livestock Production of the Ministry of Agriculture, Livestock, Fisheries, and Sustainable Development of the Regional Government of Andalusia, under reference numbers 18/02/2019/016 and 16/09/2019/153.
# (§3) In this example intended for long-term evaluation during the aging process, the animals were kept on a standard rodent diet consisting mainly of carbohydrates (66% carbohydrates, 21% proteins, and 13% fats as energy sources), where these mice accumulate fat as they age, imitating a situation of overweight associated with age.
# (§4) The experimental treatment was based on the administration of β-RA in the chow feed at a concentration of 0.33% (weight/weight), which represents a dose of 0.25-0.75 g/kg of body weight/day.
# (§5) The mice were put under treatment after weaning at 21 days of life, with said treatment being maintained for the entire life of the animals. Analyses were performed at 18 months of life, unless another age is indicated, after 17 months of treatment.
# (§6) Survival and body weight were determined through continuous records throughout the life of the animals. Motor coordination and activity were evaluated through the rotarod test. The muscle strength of the hind limbs was evaluated through the grip strength test. The image and the weight of the tissues were taken immediately after sacrificing and dissecting the animals.
# [2] = tested on: wild-type mice with a standard diet; test: Liver morphology of mice with a standard diet (H&E and Oil Red O staining); type: in vivo; conditions: standard diet + 0.33% (w/w) β-RA; 18 months of age; male and female mice
# Excerpt: as §3, §4, §5
# In this example, photographs have been taken of the animals and tissues after dissection. The tissues were fixed in formalin and embedded in paraffin. Several sections (4 μm thick) were deparaffinized with xylene and stained with hematoxylin and eosin staining (Luna-Sanchez M, Diaz-Casado E, Barca E, Tejada M A, Montilla-Garcia A, Cobos E J, Escames G, Acuna-Castroviejo D, Quinzii C M, Lopez L C (2015) The clinical heterogeneity of coenzyme Q10 deficiency results from genotypic differences in the Coq9 gene. EMBO Mol Med 7: 670-87). […]
# [3] = tested on: wild-type mice with a HFHS diet; test: Phenotypic state of mice with a high fat high sucrose (HFHS) diet (induced obesity); type: in vivo; conditions: HFHS diet + 0.33% (w/w) β-RA, 16 weeks
# Excerpt: as §2
# (§7) In this example intended for performing a short-term evaluation in an induced metabolic syndrome model, the animals were fed on a high fat high sucrose (HFHS) diet (32% carbohydrates, 14% proteins, and 54% fats as energy sources), where said mice experience a higher fat gain, imitating a state of obesity.
# as §4
# (§8) The mice were put under treatment at two months of life, with said treatment being maintained for 4 months. Analyses were performed at 6 months of life, after 4 months of treatment.
# as §6
# kidney mitochondria = test: Kidney mitochondrial proteome in mice with a standard diet; type: in vivo
# Procedure: To check if β-RA has effects on energy metabolism in mitochondria, a study was performed on the mitochondrial proteome of kidneys, because the highest β-RA levels are reached in this tissue (see Table 1).
# Each kidney was dissected, and the mitochondrial fraction was then isolated by differential centrifugation. Each pellet was resuspended in […] of HEENK medium with a protease inhibitor. The samples were lysed, digested, and treated prior to injection in UHPLC. After quality control, the samples were injected into a UHPLC 1290 system (Agilent Technologies; Santa Clara, USA) coupled to a Q Exactive HF mass spectrometer (Thermo Scientific; Bremen, Germany) in the previously described conditions (Liu F, Lossl P, Rabbitts B M, Balaban R S, Heck A J R (2018) The interactome of intact mitochondria by cross-linking mass spectrometry provides evidence for coexisting respiratory supercomplexes. Mol Cell Proteomics 17: 216-232). The raw files generated were analyzed using MaxQuant v1.6.10 software (Cox J, Mann M (2008) MaxQuant enables high peptide identification rates, individualized p.p.b.-range mass accuracies and proteome-wide protein quantification. Nat Biotechnol 26: 1367-72). The files generated with MaxQuant were analyzed with Perseus: LFQ data was log 2-transformed, and identifications that were present in at least 3 of the 5 replicates were kept for subsequent analyses. For the volcano plot, a P-value threshold of 0.01 and 1 for the LFQ value log 2 difference has been established.
# white adipocytes = test: Morphology of WAT in mice with a HFHS diet (hematoxylin and eosin staining); type: in vivo; conditions: HFHS diet + β-RA, 16 weeks
# Excerpt: as §7, §4, §8
# (§9) At the level of WAT, CoQ metabolism was evaluated by determining the levels of the major form of CoQ in rodents, i.e., CoQ9, as well as the levels of two limiting enzymes in the CoQ biosynthesis pathway, i.e., the hydroxylase Coq7 and the methyltransferase Coq5. […] These molecular changes translate into morphological changes observed with hematoxylin and eosin staining. […] As a result, the area occupied by adipocytes after treatment with a HFHS diet is larger than after treatment with the standard diet, with the number of adipocytes being smaller. Treatment with β-RA normalizes both the area of the adipocytes (FIG. 16G) and the number thereof (FIG. 16H).
# 3T3L1 preadipocytes = test: MTT cell proliferation assay in preadipocytes; type: cell-based; conditions: 1 mM β-RA for 5 days, proliferation conditions
# Procedure: as §1
# [4] = tested on: wild-type mice with a HFHS diet; test: Plasma levels of insulin and GIP in mice with a HFHS diet; type: in vivo; conditions: HFHS diet + β-RA, 16 weeks
# Excerpt: as §7, §4, §8
# Plasma levels of insulin and gastric inhibitory peptide (GIP), also called glucose-dependent insulinotropic peptide, given that both of them tend to increase in cases of obesity with insulin resistance, were determined. […] The administration of β-RA to mice with a HFHS diet reduced the plasma levels of insulin (FIG. 14A) and GIP (FIG. 14B), normalizing said values.
# [5] = CAG-CreER^T2; Mclk1^Loxp/Loxp control mice; cited from earlier work
# [6] = Quantification of β-RA levels in mouse tissues by HPLC-UV; type: in vivo; conditions: wild-type mice 3 months of age, β-RA in standard diet at 0.33% (w/w), oral, mean±SD
# Procedure: The experimental treatment was based on the administration of β-RA in the chow feed at a concentration of 0.33% (weight/weight), which represents a dose of 0.25-0.75 g/kg of body weight/day. […] Therefore, β-RA has been chronically administered orally. The quantification of β-RA was carried out by means of HPLC-UV using an Ultra Aqueous C18 column and a mobile phase consisting of 20 mM potassium phosphate and 15% acetonitrile (pH 2.5). The standard curve consisted of β-RA at a concentration of 5, 25, and 100 μg/mL. In this example, β-RA levels were determined in order to know the bioavailability of the compound when it is administered orally. It has been observed that β-RA appears in the brain, kidneys, liver, and skeletal muscle, with the kidneys being the tissues having the highest level of the compound (Table 1).
# [7] = tested on: white adipose tissue (WAT); test: CoQ metabolism in white adipose tissue of mice with a HFHS diet; type: in vivo; conditions: HFHS diet + β-RA, 16 weeks
# Excerpt: as §7, §4, §8, §9
# [8] = standard diet + 0.33% (w/w) β-RA, 18 months of age
structure (smiles),measurement,setting,value
"O=C(O)c1ccc(O)cc1O [β-RA, 2,4-dihydroxybenzoic acid]",Proliferative capacity of C2C12 myoblasts,C2C12 myoblasts,did not have a significant effect
same,Body weight,"[1]; standard diet + 0.33% (w/w) β-RA from weaning, all stages of development, male and female",reduction of weight
same,Survival,"[1]; standard diet + 0.33% (w/w) β-RA from weaning, old-age stage (18-24 months)",increase in survival
same,Amount of abdominal and visceral fat,[1]; [8],reduction in the amount of abdominal and visceral fat
same,Motor coordination (rotarod test),[1]; [8],slight upward trend
same,Muscle strength of the hind limbs (grip strength test),[1]; [8],remained unchanged and even slightly increased in reference to the total weight of the animal
same,Weight of the skeletal muscles,"[1]; standard diet + 0.33% (w/w) β-RA, 18 months of age, hind limbs",maintained in the normal range
same,Onset of hepatic steatosis (lipid droplets in liver),[2],prevented
same,Abdominal and visceral fat,[3],reduction of abdominal and visceral fat
same,Skeletal muscle mass,[3],do not cause any changes
same,Body weight (increase induced by HFHS diet),[3]; male and female,counteracted said increase in weight
same,Changes in the mitochondrial proteome: proteins of acetyl-CoA production from pyruvate and of the Krebs cycle,kidney mitochondria; mice with standard diet + β-RA,an increase in proteins linked to the metabolic pathways for the production of acetyl-CoA from pyruvate and of the tricarboxylic acid cycle or Krebs cycle
same,"Expr Fold Change, ACO2","kidney mitochondria; β-RA treated vs untreated mice, Aconitase 2 (Q99KI0)",1.383
same,"Expr Fold Change, SUCLG1","kidney mitochondria; β-RA treated vs untreated mice, Succinate CoA ligase subunit alpha (Q9WUM5)",1.301
same,"Expr Fold Change, SUCLG2","kidney mitochondria; β-RA treated vs untreated mice, Succinate CoA ligase subunit beta (Q9Z2I8)",1.189
same,"Expr Fold Change, CS","kidney mitochondria; β-RA treated vs untreated mice, citrate synthase (Q9CZU6)",1.485
same,"Expr Fold Change, DLAT","kidney mitochondria; β-RA treated vs untreated mice, dihydrolipoamide S-acetyltransferase (Q8BMF4)",1.638
same,"Expr Fold Change, DLST","kidney mitochondria; β-RA treated vs untreated mice, dihydrolipoamide S-succinyltransferase (Q9D2G2)",2.316
same,"Expr Fold Change, DLD","kidney mitochondria; β-RA treated vs untreated mice, dihydrolipoamide dehydrogenase (O08749)",1.831
same,"Expr Fold Change, IDH3A","kidney mitochondria; β-RA treated vs untreated mice, isocitrate dehydrogenase (NAD(+)) 3 catalytic subunit alpha (Q9D6R2)",1.72
same,"Expr Fold Change, IDH3B","kidney mitochondria; β-RA treated vs untreated mice, isocitrate dehydrogenase (NAD(+)) 3 non-catalytic subunit beta (Q91VA7)",1.727
same,"Expr Fold Change, IDH3G","kidney mitochondria; β-RA treated vs untreated mice, isocitrate dehydrogenase (NAD(+)) 3 non-catalytic subunit gamma (P70404)",1.573
same,"Expr Fold Change, MDH2","kidney mitochondria; β-RA treated vs untreated mice, malate dehydrogenase 2 (P08249)",1.397
same,"Expr Fold Change, OGDH","kidney mitochondria; β-RA treated vs untreated mice, oxoglutarate dehydrogenase (Q60597)",2.05
same,"Expr Fold Change, PDHA1","kidney mitochondria; β-RA treated vs untreated mice, pyruvate dehydrogenase E1 subunit alpha 1 (P35486)",1.61
same,"Expr Fold Change, PDHB","kidney mitochondria; β-RA treated vs untreated mice, pyruvate dehydrogenase E1 subunit beta (Q9D051)",1.711
same,Area of the adipocytes,white adipocytes,normalizes
same,Number of adipocytes per area,white adipocytes,normalizes
same,Hypertrophy of WAT (white adipocytes),white adipocytes; H&E staining,prevents hypertrophy of WAT
same,3T3L1 preadipocyte proliferation,3T3L1 preadipocytes,induces an inhibition
same,Plasma levels of gastric inhibitory peptide (GIP),[4],reduced
same,Plasma levels of insulin,[4],reduced
same,Body weight,[5],reduces the body weight
same,"β-RA levels, Brain",[6]; brain,1.26 ± 0.58 ng of β-RA/mg of protein
same,"β-RA levels, Kidney",[6]; kidney,43.02 ± 16.51 ng of β-RA/mg of protein
same,"β-RA levels, Liver",[6]; liver,7.04 ± 2.96 ng of β-RA/mg of protein
same,"β-RA levels, Muscle",[6]; skeletal muscle,20.28 ± 9.39 ng of β-RA/mg of protein
same,Levels of CoQ9 in WAT,[7],"increased said levels, achieving the normalization thereof"
same,Levels of biosynthetic protein Coq5 in WAT,[7],increase
same,Levels of biosynthetic protein Coq7 in WAT,[7],increase in the levels of Coq7
